This note sets out measurements from PMC11927176 (BMC Microbiology, 2025).

The experiment relates to AadA37. In words: coupled continuous spectrophotometric assay of pyrophosphate release. Format: biochemical, Morganella morganii. To be noted: 5 mM ATP, 10 mM MgCl2, 50 mM HEPES pH 7.5, 37 °C.

By Km is commonly meant the concentration of substrate that gives half-maximal velocity. Consider `CN[C@@H]1[C@H](O)[C@H](NC)[C@H]2O[C@@]3(O)C(=O)C[C@@H](C)O[C@H]3O[C@@H]2[C@H]1O` [Spectinomycin], for which the Km amounted to 8.17 µM. Then `CN[C@@H]1[C@H](O[C@H]2[C@H](O[C@H]3[C@H](O)[C@@H](O)[C@H](N=C(N)N)[C@@H](O)[C@@H]3N=C(N)N)O[C@@H](C)[C@]2(O)C=O)O[C@@H](CO)[C@H](O)[C@H]1O` [Streptomycin], with 2.67 µM.
